Experiment: Impurity analysis of azithromycin monohydrate granules by HPLC after storage at 50° C. for 8 days
Type: physicochemical
Conditions: results of Table 1
Description: Wet granules prepared according to the procedure set forth in Example 1 were placed on a tray which was placed in an oven at 55° C. Six samples were taken at different times and the moisture content was determined using an OHAUS Balance. The water/moisture content of each sample varied from 3.3-12.5 wt %, based on the total weight of the granules. The samples were stored in glass bottles, sealed, and placed in an oven at 50° C. After 8 days, the samples were removed from the oven and the amount and type of impurities was determined by high performance liquid chromatography (HPLC).
Sample solutions were freshly prepared from azithromycin monohydrate and injected on column. The percentages of impurities was calculated from the integrator output. The performance of the HPLC system was tested using standardized solutions of azithromycin monohydrate.
Three impurities were identified and measured as a percentage of the total azithromycin monohydrate in each sample.

water content range in which chemical stability is good: 5.5-12.4 wt %
Structure (SMILES): CC[C@H]1OC(=O)[C@H](C)[C@@H](O[C@H]2C[C@@](C)(OC)[C@@H](O)[C@H](C)O2)[C@H](C)[C@@H](O[C@@H]2O[C@H](C)C[C@H](N(C)C)[C@H]2O)[C@](C)(O)C[C@@H](C)CN(C)[C@H](C)[C@@H](O)[C@]1(C)O (relative stereo) [azithromycin monohydrate, [2R-(2R*,3S*,4R*,5R*,8R*, 10R*, 11R*, 12S*, 13S*, 14R*)]-13-[(2,6-dideoxy-3-C-methyl-3-β-methyl-α-L-ribo-hexopyranosyl)oxy]-2-ethyl-3,4,10-trihydroxy-3,5,6,8,10,12,14-heptamethyl-11-[[3,4,6-trideoxy-3-(dimethylamino)-β-D-xylo-hexopyranosyl]oxy]-1-oxa-6-azacyclopentadecan-15-one monohydrate]
